Test results published in article PMC6271978, “1H-2,3-Dihydroperimidine Derivatives: A New Class of Potent Protein Tyrosine Phosphatase 1B Inhibitors” (Molecules, 2013).
“Also recorded” adds a separate entry of the source.

Assays:
SHP-2 = molecular target: T1, SHP-2 (Homo sapiens, UniProt Q06124); assay: SHP-2 inhibition, OMFP substrate assay; format: biochemical
T1 construct: made in house
T1 sequence (Q06124 1-593): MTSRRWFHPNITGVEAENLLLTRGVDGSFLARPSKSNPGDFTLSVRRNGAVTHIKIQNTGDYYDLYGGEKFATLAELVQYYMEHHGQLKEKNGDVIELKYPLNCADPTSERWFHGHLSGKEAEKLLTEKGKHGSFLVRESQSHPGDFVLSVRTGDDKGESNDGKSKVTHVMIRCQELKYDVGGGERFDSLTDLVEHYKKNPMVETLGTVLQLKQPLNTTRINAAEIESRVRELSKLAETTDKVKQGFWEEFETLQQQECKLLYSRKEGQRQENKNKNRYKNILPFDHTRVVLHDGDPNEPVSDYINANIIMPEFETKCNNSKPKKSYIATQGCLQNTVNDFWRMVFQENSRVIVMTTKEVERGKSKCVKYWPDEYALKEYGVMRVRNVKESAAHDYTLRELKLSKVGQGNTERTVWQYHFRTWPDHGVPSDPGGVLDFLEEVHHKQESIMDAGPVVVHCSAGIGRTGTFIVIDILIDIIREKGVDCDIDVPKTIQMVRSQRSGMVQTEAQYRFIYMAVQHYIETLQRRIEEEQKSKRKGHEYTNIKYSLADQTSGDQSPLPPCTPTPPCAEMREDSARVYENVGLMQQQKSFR
Protocol: In addition to potency improvements, we investigated the selectivity of three representative compounds, namely, 1, 46 and 49 against other PTPs (TCPTP, SHP-1, SHP-2, LAR). […] Besides TCPTP, we tested the inhibitory activity of these compounds on other three homogenous enzymes SHP-1, SHP-2, and LAR [25].
A colorimetric assay to measure inhibition against PTP1B and TCPTP was performed in 96-well plates. Briefly, the tested compounds were solubilized in DMSO and serially diluted into concentrations for the inhibitory test. The assays were carried out in a final volume of 100 μL containing 50 mmol/L MOPS, pH 6.5, 2 mmol/L pNPP, 30 nmol/L GST-PTP1B or GST-TCPTP,and 2% DMSO, and the catalysis of pNPP was continuously monitored on a SpectraMax 340 microplate reader at 405 nm for 3 min at 30 °C. The IC50 value was calculated from the nonlinear curve fitting of the percent inhibition [inhibition (%)] vs. the inhibitor concentration using the Equation (1): Inhibition (%) = 100/[1 + (IC50/[I]k)] (1) where k is the Hill coefficient. To study the inhibition on the other PTPase family members, SHP1, SHP2 and LAR were prepared and assays were performed according to procedures described previously. Briefly, the enzymatic activity of the SHP1, SHP2 and LARwere determined at 30 °C by monitoring the dephosphorylation of substrate 3-o-methylfluorescein phosphate (OMFP), product was then detected at a 485 nm excitation wavelength and 530 nm emission wavelength by the EnVision multilabe plate reader (Perkin-Elmer Life Sciences, Boston, MA, USA). The assays were carried out in a final volume of 50 μL containing 50 mmol/L MOPS, pH 6.8, 10 μmol/L OMFP, 20 nmol/L recombinant enzyme, 2 mmol/L dithiothreitol , 1 mmol/L EDTA, and 2% DMSO. The initial rate of the dephosphorylation was presented by the early linear region of the enzymatic reaction kinetic curve, the inhibitory activity of the compound was continuously monitored.

PTP1B = molecular target: T2, PTP1B (Homo sapiens, UniProt P18031); assay: Enzyme kinetics: fast-binding and inhibition modality on PTP1B; format: biochemical
T2 sequence (P18031 1-435): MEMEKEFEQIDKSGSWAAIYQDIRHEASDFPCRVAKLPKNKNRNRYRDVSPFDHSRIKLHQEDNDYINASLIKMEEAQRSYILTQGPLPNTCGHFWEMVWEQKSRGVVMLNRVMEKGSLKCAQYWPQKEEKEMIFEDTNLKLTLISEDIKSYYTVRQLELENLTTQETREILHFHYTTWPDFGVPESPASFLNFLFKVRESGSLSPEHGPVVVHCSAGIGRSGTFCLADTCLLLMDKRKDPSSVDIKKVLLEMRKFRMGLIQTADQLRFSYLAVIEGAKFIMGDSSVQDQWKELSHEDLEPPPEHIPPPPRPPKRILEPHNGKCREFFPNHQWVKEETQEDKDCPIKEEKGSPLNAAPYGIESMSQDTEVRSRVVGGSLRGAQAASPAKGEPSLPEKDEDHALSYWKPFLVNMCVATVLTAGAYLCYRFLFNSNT
Protocol: A kinetic study was performed in order to identify the inhibitory mechanism of compound 46 (Figure 2), using the reported enzyme kinetics assays.
To characterize the inhibitor of PTP1B, the assay was carried out in a 100 μL system containing 50 mmol/L MOPS, pH 6.5, 14 nmol/L PTP1B, pNPP in 2-fold dilution from 80 mmol/L, and different concentrations of the inhibitor. […] (2) where Km is the Michaelis constant, v is the initial rate, Vmax is the maximum rate, and [S] is the substrate concentration. The Ki value was obtained by the linear replot of apparent Km/Vmax (slope) from the primary reciprocal plot versus the inhibitor concentration [I] according to the equation Km/Vmax = 1 + [I]/Ki.

IC50 (SHP-2; OMFP substrate, means ± SD of three replications, PC = Na3VO4): 5.95 ± 0.29 µM | selectivity for PTP1B over SHP-2 (SHP-2; from IC50 values): about 9 fold | binding behaviour of inhibition of PTP1B (time dependence) (PTP1B; preincubation of PTP1B with compound on ice for different times): fast-binding inhibition
Compound: O=C(O)CNC(=O)c1ccc(C2Nc3cccc4cccc(c34)N2)nc1 [Compound 46]
inhibition modality toward PTP1B (PTP1B; Lineweaver-Burk plot, increased Km, unchanged Vmax, pNPP substrate): competitive inhibitor; also recorded: Typical competitive inhibition
